From US10040791B2, “Isoxazole derivative as mutant isocitrate dehydrogenase 1 inhibitor” (Daiichi Sankyo Company, Limited, priority 2014, dated 2018)
Where a name gives a salt, the structure may show the parent alone.

Legend:
[1] = molecular target: IDH1R132C (Homo sapiens (Human), UniProt O75874, R132C); test: Inhibitory activity against IDH1R132C enzyme (NADPH detection, WST-8); type: biochemical; settings: 10 nM, residual NADPH detected with WST-8, read-out: Test Example 1 IDH1 R132C IC50
Protocol: After transformation of Rosetta 2 (DE3) E. coli, the expression of the protein was induced with IPTG.
While NADPH-derived fluorescence was occasionally monitored, the reaction was terminated by the addition of 5 μL of 0.5 M EDTA before consumption of NADPH. 5 μL of WST-8 reagent (Dojindo Laboratories, #CK04) was further added and mixed therewith. 15 minutes later, the absorbance at 450 nm was measured using a plate reader (PerkinElmer, Inc., EnVision). The observed absorbance value reflects the amount of residual NADPH. From the absorbance data, the enzyme inhibitory activity of each compound at each concentration was calculated and analyzed using medical statistical analysis software GraphPad Prism to calculate an IC50 value.

[2] = test system: HT1080 xenografted mice (IDH1R132C); test: 2-HG production inhibitory activity using HT1080 xenografted mice; type: in vivo, mouse; settings: 2-HG production, HT1080 xenografted mice; for response vs control in vivo at 75 mg/kg: Mus musculus, HT-1080, po, 6 h, read-out: Test Example 5 Ratio (%)
Protocol: HT1080 xenografted mice having successfully engrafted tumors were given by oral gavage each compound at 75 mg/kg a total of three times twice a day. The compound was suspended in a vehicle solution at 7.5 mg/mL using a homogenizer. Then, the suspension was stored at −20° C., thawed immediately before the administration, and given to mice. A negative control group for the test was given a vehicle by oral gavage. The body weights of the mice were measured using an automatic balance for small animals. The dosing solution was administered at a dose of 10 mL/kg body weight.
6 hours after the final administration, each mouse was euthanized with carbon dioxide. A portion of a tumor was collected, and its weight was measured using an electronic balance. Then, the tumor was frozen on dry ice. To the frozen tumor, methanol was added in an amount of 14 times the tumor weight. The resulting tumor was homogenized with Beads shocker (Yasui Kikai Corp.) and then incubated for 15 minutes in a freezer at −20° C. After centrifugation at 15000 rpm at 4° C. for 15 minutes using a high-speed refrigerated microcentrifuge, 250 μL of methanol and 400 μL of ultrapure water were added to 150 μL of the obtained supernatant. The prepared samples were subjected to 2-HG measurement.

[3] = test system: HT-1080 cells expressing IDH1R132C; test: 2-HG production inhibitory activity using HT1080 cell; type: cell-based, human; settings: Homo sapiens, HT-1080; 2-HG production, HT1080 cells; read-out: Test Example 3 IC50
Protocol: Then, 100 μL of growth medium B was added to each well, further 25 μL of a solution of each compound diluted to a predetermined concentration with growth medium B was added to each well, and the cells were incubated at 37° C. for 2 days under 5% CO2. […] Then, 150 μL of ultrapure water was further added to each well, and the mixture was stirred by pipetting and stored at −20° C.
The preserved solutions were thawed at room temperature.

IDH1R132C, sequence (O75874 whole entry R132C): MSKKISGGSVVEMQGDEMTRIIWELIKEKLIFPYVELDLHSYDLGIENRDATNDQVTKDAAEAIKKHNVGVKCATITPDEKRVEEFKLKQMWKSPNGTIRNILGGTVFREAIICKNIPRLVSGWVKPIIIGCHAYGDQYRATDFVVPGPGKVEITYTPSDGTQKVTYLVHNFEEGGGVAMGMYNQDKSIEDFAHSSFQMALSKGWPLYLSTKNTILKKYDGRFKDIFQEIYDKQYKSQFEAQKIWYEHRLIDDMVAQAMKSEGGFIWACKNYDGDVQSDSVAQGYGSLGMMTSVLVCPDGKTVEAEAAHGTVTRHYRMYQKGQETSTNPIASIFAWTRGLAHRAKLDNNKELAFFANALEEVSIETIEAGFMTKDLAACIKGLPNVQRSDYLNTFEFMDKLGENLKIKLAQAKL

| SMILES | IC50 [1] [nM] | IC50 [3] [nM] | response vs control in vivo at 75 mg/kg [2] [%] | Test Example 5 Ratio (%) [2] [%] |
| --- | --- | --- | --- | --- |
| C=CC(=O)N1CCN(c2onc(-c3c(Cl)cc(Cl)cc3Cl)c2C(=O)n2ccc3c(/C=C/C(=O)O)cccc32)C(C)C1 (stereo in doubt) [Example 146, (2E)-3-[1-({5-[(2R)-4-Acryloyl-2-methylpiperazin-1-yl]-3-(2,4,6-trichlorophenyl)-1,2-oxazol-4-yl}carbonyl)-1H-indol-4-yl]prop-2-enoic acid] | 144 | 104 | 38 | – |
| O=C(O)/C=C/c1cccc2c1ccn2C(=O)c1c(-c2c(Cl)cccc2Cl)noc1N1CCOCC1 [Example 136, (2E)-3-(1-{[3-(2,6-Dichlorophenyl)-5-(morpholin-4-yl)-1,2-oxazol-4-yl]carbonyl}-1H-indol-4-yl)prop-2-enoic acid] | 140 | 335 | – | – |
| C[C@@H]1CCC[C@H](C)N1c1onc(-c2c(Cl)cccc2Cl)c1C(=O)n1ccc2c(/C=C/C(=O)O)cccc21 [Example 137, (2E)-3-(1-{[3-(2,6-Dichlorophenyl)-5-(cis-2,6-dimethylpiperidin-1-yl)-1,2-oxazol-4-yl]carbonyl}-1H-indol-4-yl)prop-2-enoic acid] | 189 | 299 | – | – |
| C=CC(=O)N1CCN(c2onc(-c3c(Cl)cccc3Cl)c2C(=O)n2ccc3c(/C=C/C(=O)O)cccc32)C(C)(C)C1 [Example 153, (2E)-3-(1-{[5-(4-Acryloyl-2,2-dimethylpiperazin-1-yl)-3-(2,6-dichlorophenyl)-1,2-oxazol-4-yl]carbonyl}-1H-indol-4-yl)prop-2-enoic acid] | 130 | 166 | – | – |
| C=CC(=O)N1CC2(CC2)N(c2onc(-c3c(F)cccc3Cl)c2C(=O)n2cc(C)c3c(/C=C/C(=O)O)cccc32)C[C@H]1C [Example 162, (2E)-3-[1-({5-[(6R)7-Acryloyl-6-methyl-4,7-diazaspiro[2.5]oct-4-yl]-3-(2-chloro-6-fluorophenyl)-1,2-oxazol-4-yl}carbonyl)-3-methyl-1H-indol-4-yl]prop-2-enoic acid] | 95 | 253 | – | – |
| Cc1cn(C(=O)c2c(-c3c(Cl)cc(Cl)cc3Cl)noc2C(C)(C)F)c2cccc(/C=C/C(=O)O)c12 [Example 168, (2E)-3-(1-{[5-(2-Fluoropropan-2-yl)-3-(2,4,6-trichlorophenyl)-1,2-oxazol-4-yl]carbonyl}-3-methyl-1H-indol-4-yl)prop-2-enoic acid tert-butylamine salt] | – | – | 13 | – |
| Cc1cn(C(=O)c2c(-c3c(F)cc(Cl)cc3Cl)noc2C(C)(C)F)c2cccc(/C=C/C(=O)O)c12 [Example 169, (2E)-3-(1-{[3-(2,4-Dichloro-6-fluorophenyl)-5-(2-fluoropropan-2-yl)-1,2-oxazol-4-yl]carbonyl}-3-methyl-1H-indol-4-yl)prop-2-enoic acid tert-butylamine salt] | – | – | – | 17 |
| Cc1cn(C(=O)c2c(-c3c(F)cc(Cl)cc3F)noc2C(C)(C)F)c2cccc(/C=C/C(=O)O)c12 [Example 170, (2E)-3-(1-{[3-(4-Chloro-2,6-difluorophenyl)-5-(2-fluoropropan-2-yl)-1,2-oxazol-4-yl]carbonyl}-3-methyl-1H-indol-4-yl)prop-2-enoic acid tert-butylamine salt] | – | – | – | 35 |
| Cc1cc(Cl)cc(C)c1-c1noc(C(C)(C)F)c1C(=O)n1cc(C)c2c(/C=C/C(=O)O)cccc21 [Example 171, (2E)-3-(1-{[3-(4-Chloro-2,6-dimethylphenyl)-5-(2-fluoropropan-2-yl)-1,2-oxazol-4-yl]carbonyl}-3-methyl-1H-indol-4-yl)prop-2-enoic acid tert-butylamine salt] | – | – | – | 22 |
| Cc1cc(Cl)cc(Cl)c1-c1noc(C(C)(C)F)c1C(=O)n1cc(C)c2c(/C=C/C(=O)O)cccc21 [Example 172, (2E)-3-(1-{[3-(2,4-Dichloro-6-methylphenyl)-5-(2-fluoropropan-2-yl)-1,2-oxazol-4-yl]carbonyl}-3-methyl-1H-indol-4-yl)prop-2-enoic acid tert-butylamine salt] | – | – | – | 8 |
| Cc1cn(C(=O)c2c(-c3ccc(Cl)cc3Cl)noc2C(C)(C)F)c2cccc(/C=C/C(=O)O)c12 [Example 173, (2E)-3-(1-{[3-(2,4-Dichlorophenyl)-5-(2-fluoropropan-2-yl)-1,2-oxazol-4-yl]carbonyl}-3-methyl-1H-indol-4-yl)prop-2-enoic acid tert-butylamine salt] | – | – | – | 2 |

Further lines, with some results ahead:

| IC50 [1] [nM] | IC50 [3] [nM] | SMILES | response vs control in vivo at 75 mg/kg [2] [%] | Test Example 5 Ratio (%) [2] [%] |
| --- | --- | --- | --- | --- |
| 56 | 33 | CC1(c2onc(-c3c(Cl)cc(Cl)cc3Cl)c2C(=O)n2ccc3c(/C=C/C(=O)O)cccc32)COC1 [Example 1, (2E)-3-(1-{[5-(3-Methyloxetan-3-yl)-3-(2,4,6-trichlorophenyl)-1,2-oxazol-4-yl]carbonyl}-1H-indol-4-yl)prop-2-enoic acid] | 21 | – |
| 47 | 18 | Cc1cn(C(=O)c2c(-c3c(Cl)cc(Cl)cc3Cl)noc2C2(C)COC2)c2cccc(/C=C/C(=O)O)c12 [Example 2, (2E)-3-(3-Methyl-1-{[5-(3-methyloxetan-3-yl)-3-(2,4,6-trichlorophenyl)-1,2-oxazol-4-yl]carbonyl}-1H-indol-4-yl)prop-2-enoic acid] | 18 | – |
| 64 | 60 | COC1(c2onc(-c3c(Cl)cc(Cl)cc3Cl)c2C(=O)n2ccc3c(/C=C/C(=O)O)cccc32)COC1 [Example 3, (2E)-3-(1-{[5-(3-Methoxyoxetan-3-yl)-3-(2,4,6-trichlorophenyl)-1,2-oxazol-4-yl]carbonyl}-1H-indol-4-yl)prop-2-enoic acid] | 42 | – |
| 56 | 27 | COC1(c2onc(-c3c(Cl)cc(Cl)cc3Cl)c2C(=O)n2cc(C)c3c(/C=C/C(=O)O)cccc32)COC1 [Example 4, (2E)-3-(1-{[5-(3-Methoxyoxetan-3-yl)-3-(2,4,6-trichlorophenyl)-1,2-oxazol-4-yl]carbonyl}-3-methyl-1H-indol-4-yl)prop-2-enoic acid] | 15 | – |
| 55 | 22 | CC1(c2onc(-c3c(Cl)cc(Cl)cc3Cl)c2C(=O)n2cc3c4c(cccc42)/C(=C/C(=O)O)CC3)COC1 [Example 8, (2E)-[1-{[5-(3-Methyloxetan-3-yl)-3-(2,4,6-trichlorophenyl)-1,2-oxazol-4-yl]carbonyl}-3,4-dihydrobenzo[cd]indol-5(1H)-ylidene]ethanoic acid] | 67 | – |
| – | 337 | Cc1cn(C(=O)c2c(-c3c(Cl)cc(Cl)cc3Cl)noc2C(F)(F)F)c2cccc(/C=C/C(=O)O)c12 [Example 61, (2E)-3-(3-Methyl-1-{[3-(2,4,6-trichlorophenyl)-5-(trifluoromethyl)-1,2-oxazol-4-yl]carbonyl}-1H-indol-4-yl)prop-2-enoic acid] | 63 | – |
| – | 281 | Cc1cn(C(=O)c2c(-c3ccc(Cl)cc3Cl)noc2C2(C)COC2)c2cccc(/C=C/C(=O)O)c12 [Example 78, (2E)-3-(1-{[3-(2,4-Dichlorophenyl)-5-(3-methyloxetan-3-yl)-1,2-oxazol-4-yl]carbonyl}-3-methyl-1H-indol-4-yl)prop-2-enoic acid] | 50 | – |
| – | 42 | Cc1cn(C(=O)c2c(-c3c(Cl)cc(Cl)cc3Cl)noc2C2(C#N)CCC2)c2cccc(/C=C/C(=O)O)c12 [Example 93, (2E)-3-(1-{[5-(1-Cyanocyclobutyl)-3-(2,4,6-trichlorophenyl)-1,2-oxazol-4-yl]carbonyl}-3-methyl-1H-indol-4-yl)prop-2-enoic acid] | 119 | – |
| 88 | 288 | CN(C)c1onc(-c2c(Cl)cc(Cl)cc2Cl)c1C(=O)n1ccc2c(/C=C/C(=O)O)cccc21 [Example 138] | – | – |
| – | 330 | Cn1cc(C(=O)c2c(-c3c(Cl)cc(Cl)cc3Cl)noc2C(C)(C)C)c2cccc(/C=C/C(=O)O)c21 [Example 164] | 89 | – |
| 81 | 186 | Cn1cc(C(=O)c2c(-c3c(Cl)cc(Cl)cc3Cl)noc2C2(C)CC2)c2cccc(/C=C/C(=O)O)c21 [Example 165] | – | – |
